# Experiment: gradient 5% acetonitrile 3 min, to 50% in 2 min, to 85% in 15 min, held 3 min, 100 µL/min
# Conditions: column: Zorbax Extend-C18 2.1 x 50 mm; eluents: water / acetonitrile, 0.1% formic acid
# How it was run: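 Retention time was recorded from adduct peaks, which were picked computationally and each inspected manually. Pure standards ran in mixtures of ~100 molecules on HPLC coupled to a quadrupole time-of-flight mass spectrometer, in positive and negative ionization mode, through a Zorbax Extend-C18 column (2.1 × 50 mm, 1.8 μm) at 100 μL/min. Eluents were water and acetonitrile, each with 0.1% formic acid.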
row,SMILES,RP-LC retention time
1,COC(=O)CCc1sc(Nc2ccccn2)nc1-c1ccc(OC)cc1,810 s
2,Cc1ccccc1CNC(=O)CN1C(=O)CCCc2cc(S(=O)(=O)N3CCCC3)ccc21,916 s
3,CCN1CCN(CCNC(=O)C2Cn3cccc3C(=O)N2CC(C)C)CC1 (configuration not stated),562 s
4,COCc1nnc(-c2ccc(F)cc2)o1,740 s
5,Cc1ccc(S(=O)(=O)Nc2ccc3nc(N4CCN(CCC#N)CC4)cc(C(=O)O)c3c2)cc1C,614 s
6,CCOC(=O)CCC(=O)N1CCC(Oc2nc3c(C)ccc(C)c3s2)CC1,1100 s
7,COc1ccc2c(C)cc(C)nc2n1,595 s
8,CCN(CC)C(=O)c1ccc2c(c1)N(CC(=O)NCc1ccco1)C(=O)CO2,652 s
9,CCC(=O)NCc1csc(C2CCCN(C(=O)CC(C)(C)C)C2)n1 (configuration not stated),703 s
10,O=C(CSc1nc(-c2cccc([N+](=O)[O-])c2)cs1)NCc1ccccc1,890 s
11,CCCCN1CCN(C(=O)c2cn3cc(Cl)ccc3n2)CC1,589 s
12,CCOC(=O)C1=C(CN2CCc3ccccc3C2)NC(=O)NC1c1cccs1 (configuration not stated),655 s
13,CCOc1ccccc1-c1nc(Cn2cnc3onc(C)c3c2=O)c(C)o1,928 s
14,CCOC(=O)CNC(=O)C1CCN(c2ncccc2S(=O)(=O)N2CCCCC2)CC1,784 s
15,Cc1cccc(N2C(=O)CN(S(C)(=O)=O)CC2(C)C(=O)NC2CCCCCCC2)c1C (configuration not stated),951 s
16,COC(=O)Cc1c(C(=O)OC)nnn1-c1ccc(OC)cc1,862 s
17,c1cc(-c2noc(-c3cccnc3)n2)cc(-c2ccn[nH]2)c1,777 s
18,COCCn1ncc(N2CCC(C(=O)Nc3ccc(F)cc3F)C2)cc1=O (configuration not stated),666 s
19,O=C(O)c1cc(NS(=O)(=O)c2ccccc2)ccc1N1CCCC(CN2CCCC2)C1 (configuration not stated),927 s
20,Cc1cccc(NC(=O)CSc2ccc(N3CCCC(C(=O)NC4CC4)C3)nn2)c1 (configuration not stated),648 s
21,Cc1cc(N(C)C)n2ncc(-c3ccc(Cl)cc3)c2n1,889 s
22,O=C(COc1ccc(Cl)cc1)Nc1nc(-c2ccc(S(=O)(=O)N3CCOCC3)cc2)cs1,1040 s
23,O=c1cccnn1CCNS(=O)(=O)c1cccnc1,565 s

row,SMILES,RP-LC retention time
1,COc1ccc(OC)c(COCC(O)CN2CCc3cc(OC)c(OC)cc3C2)c1 (configuration not stated),575 s
2,CCN1C(=O)c2cccnc2Sc2cc(NC(=O)C(C)(C)C)ccc21,795 s
3,CCN1C(=O)C(C)(C(=O)Nc2ccc(F)c(Cl)c2)Oc2cccnc21 (configuration not stated),988 s
4,COc1ccc(NC(=O)Cn2c(N3CCOCC3)nc(C)cc2=O)cc1Cl,1120 s
5,CNC(=O)N1CCCC(Cn2cnc3cccnc32)C1 (configuration not stated),574 s
6,CCOC(=O)C(C)NC(=O)NCC(=O)N1CCc2ccccc21 (configuration not stated),696 s
7,Cc1ccc(S(=O)(=O)N2CCC(C)CC2)cc1-c1nnc(-c2ccc(F)cc2)o1,1220 s
8,Cn1cc2c3c(cccc31)CN(C(=O)Nc1ccc(Br)cc1F)CC2,1000 s
9,Cc1cccc(Sc2nccnc2N2CCCC(C(=O)NCc3ccccc3C)C2)c1 (configuration not stated),1150 s
10,CCOc1cc(-c2ccc(F)cc2)nc2ccc(NC(=O)C3CCC3)cc12,774 s
11,O=C(NC1CCCC1)N1CC(Oc2ccccc2-c2nc(-c3ccccc3)no2)C1,1010 s
12,CCOc1ccccc1C1NC(=O)N(CC(=O)NC2CCCC2)C2=C1C(=O)OC2 (configuration not stated),737 s
13,COc1cccc(CNC(=O)c2ccc3c(c2)N(C)C(=O)c2ccccc2O3)c1,852 s
14,O=C(CN1C(=O)COc2ccc(C(=O)N3CCCCC3)cc21)NC1CCCCCCC1,844 s
15,O=C(Nc1ncn[nH]1)C1CCC1,546 s
16,CC1(C)Cc2c(C#N)c(N3CCN(C(=O)c4ccc([N+](=O)[O-])cc4)CC3)nc(-c3ccccc3)c2CO1,1140 s
17,N#Cc1ccc(C(=O)N2CCCC2c2nc(-c3ccccc3)n[nH]2)cc1 (configuration not stated),696 s
18,CN(C)c1ccc(CNc2ccc(-c3nc(-c4ccc(F)cc4)no3)cn2)cc1,889 s
19,CCCS(=O)(=O)N1CCC[C@H]1c1nc(-c2ccc(F)cc2)n[nH]1,740 s
20,COc1ccc(Nc2nc(N3CCN(C)CC3)nc3c2C(=O)CCC3)cc1,645 s
21,CCOc1ccc(S(=O)(=O)N2CCC(C(=O)NCc3cccnc3)CC2)cc1,623 s
22,Cc1cc(N2CCN(C(=O)Nc3ccccc3C)CC2)nc(N2CCOCC2)n1,613 s
23,CCN1C(=O)c2cc(S(=O)(=O)Nc3cccc(Cl)c3)ccc2Oc2cccnc21,1060 s

row,SMILES,RP-LC retention time
1,O=C(NCC(c1cccnc1)N1CCOCC1)c1ccccc1 (configuration not stated),522 s
2,CCC(=O)Nc1ccc(-n2cnc(C(=O)N3CCN(c4ccccc4)CC3)c2)nc1,708 s
3,CCOC(=O)N1CCN(C(=O)CSc2nc(-c3cccc(C)c3)ns2)CC1,941 s
4,CC(C)NC(=O)Cn1nc2c3cc(-c4ccc(F)cc4)nn3ccn2c1=O,785 s
5,COc1ccc(-c2csc(NC(=O)Cn3c(=O)oc4ccccc43)n2)cc1OC,828 s
6,Cc1cccc(NC(=O)CN2C(=O)CC(C)S(=O)(=O)c3ccccc32)c1C (configuration not stated),789 s
7,COC(=O)c1cc(S(=O)(=O)N2CCCC2C(=O)Nc2cc(C)ccc2C)cn1C (configuration not stated),901 s
8,Cc1cccc(-c2nnc(Cc3nc(-c4cccs4)no3)o2)c1,979 s
9,CCn1cc(S(=O)(=O)N2CC(Oc3cccc(-c4nc(C)no4)c3)C2)cn1,839 s
10,O=C(NC1CCCCC1)c1ccc(CN2CCN(Cc3ccccc3)C(=O)C2=O)cc1,787 s
11,COc1ccc(-c2noc(C3(NC(=O)c4cccc(Cl)c4)CCCCC3)n2)cc1,1250 s
12,O=C(O)c1cccc2c1CCN2C(=O)c1ccccc1,731 s
13,Cc1ccc2c(c1)C(=O)NC1(CCN(C(=O)c3ccc(C(F)(F)F)cc3)CC1)N2C,871 s
14,O=C(Nc1ccc(OC(F)(F)F)cc1)C(=O)Nc1ccccc1[N+](=O)[O-],1090 s
15,CCCNC(=O)C1CCCN(c2nc(C)nc3onc(CC)c23)C1 (configuration not stated),743 s
16,CCc1ccccc1NC(=O)Cn1c(NCCCc2ccccc2)nc(C)cc1=O,857 s
17,COc1ccc(-n2c(=O)c3sccc3n(Cc3nc(-c4ccc(OC(C)C)cc4)no3)c2=O)cc1,1060 s
18,COc1ccc(CNC(=O)Cn2c(C)nc3c(sc4nc(-c5ccccc5)ccc43)c2=O)cc1,970 s
19,Cn1c(=O)c2c(nc(/C=C/c3cccc(Cl)c3)n2C)n(C)c1=O,1040 s
20,Cc1ccc(C2Cn3nnc(-c4nc(-c5ccc6c(c5)OCO6)no4)c3CO2)c(C)c1 (configuration not stated),1250 s
21,O=C(Nc1ccccc1)N1CCN(c2ncccc2-c2nnc(C3CC3)o2)CC1,750 s

# From the METLIN SMRT retention time set (Domingo-Almenara et al. 2019)
